Measurements taken from PMC10442743 (Dalton Transactions (Cambridge, England : 2003), 2023).
Where two headings read alike, the source gives them in different places.

Assays:
MDA-MB-231 = experiment: MTT cytotoxicity assay, MDA-MB-231 cells; assay type: cell-based, human
Description: (§1) The cytotoxicity of 1–11CA was assessed against human breast cancer MCF-7 and MDA-MB-231 cells, and non-tumorigenic adherent mouse fibroblast connective tissue L929 cells using the MTT assay after 24 and 72 h (Tables S5 ^† and Table 1, respectively).
(§2) Then, necessary dilutions were made using the supplement DMEM, to prepare the range of tested concentrations. Since DMSO was used to solubilize the compounds, a supplemented DMEM + DMSO (at the same percentage as in the sequential dilutions) was considered as a control in the 3-[4,5-dimetylthiazole-2-yl]-2,5-diphenyltetrazolium bromide (MTT) assay.
(§3) L929, MCF-7, and MDA-MB-231 cell lines were cultured in DMEM supplemented with 10% (v/v) FBS and 1% (v/v) of penicillin–streptomycin. The cells were incubated in a humidified chamber at 37 °C under saturated air with a 5% CO2 atmosphere. Cells were passed at 80%–90% of confluency with 0.25% (w/v) trypsin and the cell culture media was changed every 2–3 days.
(§4) The compounds were tested on two breast cancer cell lines (MCF-7 and MDA-MB-231) and L929 fibroblasts, used as a reference for the safety evaluation according to ISO 10993-1:2009 “Biological evaluation of medical devices”. Cells were seeded on sterile 96-well plates at 50 000 cells per well (L929) and 20 000 cells per well (MCF-7 and MDA-MB-231) in supplemented DMEM medium (100 μL) for 24 h. The culture medium was removed and new media containing different concentrations of the compounds (0–1000 μM) was added to the wells (100 μL). Control cells were incubated under the same conditions in the absence of a compound. Cells were incubated for 24 and 72 h under the same conditions described above. Then, the medium was removed, and the cells were incubated with 3-(4,5-dimethylthiazol-2-yl)-2,5-diphenyltetrazolium bromide (MTT; 0.5 mg mL^−1) for 3 h. After this time, the medium was removed, and formazan crystals were solubilized with DMSO (100 μL per well). The absorbance in each well was read on a SynergyTM HT Multimode microplate reader (BioTek Instruments; Winooski, VT, USA) at 570 and 630 nm (for background correction), and the cell viability was calculated according to the following equation (eqn (1)):1 [drawing 3] where OD570(sample) and OD630(sample) are the optical densities of the solutions containing the compounds and OD570(control) and OD630(control) are controls without compound.
(§5) Each apoptosis value determination represents the mean ± standard deviation of 2 independent assays. The IC50 values were obtained using GraphPad Prism software and ANOVA (analysis of variance) was performed to determine the statistical difference between the IC50 values of different cell lines.

L929 = experiment: MTT cytotoxicity assay, L929 fibroblasts (and selectivity index); assay type: cell-based, mouse; conditions: for SI (selectivity index): IC50 L929 divided by average IC50 of the breast cancer cell lines
Description: as §1, §2, §3, §4, §5

MCF-7 = experiment: MTT cytotoxicity assay, MCF-7 cells; assay type: cell-based, human
Description: as §1, §2, §3, §4, §5

[1] = Solubility in water (ICP-MS); conditions: 25 °C, limit of detection = 5 ppt
Description: sonication, the mixtures were stirred at 25 °C for 1 h. The saturated solutions were filtered
to remove any insoluble solids, dissolved in 0.5 mL of MilliQ water, and analyzed using
ICP-MS. Samples were submitted to acidic digestion with 2 mL of concentrated HNO3
min to heat to 100°C and keep at 100°C for 60 min. After the digestion, the sample
volumes were precisely adjusted to 5 mL with MilliQ water. Samples were further diluted
30 times with 2% HNO3 solution and their Ru content was analyzed by ICP-MS using
standard mode on NexIon 350 D ICP-MS instrument (PerkinElmer). Yttrium was added
as an internal standard at a concentration of 2 ppb to all the solution and Ru quantitation
was performed using an external calibration curve with standards in the 0.05-50 ppb

[2] = Molar conductivity in acetonitrile; assay type: physicochemical; conditions: 1 mM in acetonitrile, 25 °C
Description: The molar conductivity (ΛM, reported as S·cm2·mol–1) of solutions of 11CA in acetonitrile (1 mM) were measured in a Radiometer Copenhagen CDM92 equipped with a conductivity cell CDC641T glass platinum electrode at room temperature (25 °C). The conductivity of the pure solvent was used as standard controls.
Table S3. Solubility in water at 25 °C, n-octanol/water partition coefficient and molar conductivity of the 11CA. * below limit of detection = 5 ppt.

[3] = n-octanol/water partition coefficient (shake-flask, ICP-MS)
Description: The saturated solutions were filtered
(DigiPREP Jr. 15ml, 40 Pos, SCP Science). The digestion program was the following: 15
After the digestion, the sample
Samples were further diluted
range. All measurements were performed in triplicates.
lipophilicity of a compound. This assay was performed following the Shake-flask method
organic and aqueous phase. Aliquots of each phase were taken and analyzed separately
range. The partition coefficient was calculated as P!"=
respectively. All measurements were performed in triplicates.

ctDNA = experiment: Circular dichroism / induced circular dichroism with calf thymus DNA; conditions: DNA, 24 h, 37 °C
Description: Calf thymus (ct) DNA (Merck®) was used to perform the circular dichroism assay to detect conformational changes in the ctDNA induced by the compounds. CD spectral data was collected on a Chirascan™ V100 (Applied Photophysics) spectropolarimeter equipped with a large area Avalanche photodiodes detector and computer-controlled thermoelectrical cell holder using a 1 cm path length quartz cuvette. CD spectra of ctDNA in the absence and presence of different concentrations of 11Cl were recorded at wavelengths ranging from 320 to 190 nm under constant nitrogen flush at 25 °C. For each CD spectrum, the number of scans was set to 5, and spectral data were collected at 0.1 ms intervals. Additionally, methyl green (MG) and 4′,6-diamidino-2-phenylindole (DAPI), and propidium iodide (PI) were analyzed as minor and major groove binders and as an intercalator, respectively, to help identify the binding mode of 11Cl to DNA. Samples were prepared in 10 mM Tris-HCl buffer (pH 7.6) with 1 mM EDTA. The concentration of ctDNA was fixed at 100 μM (concerning base pairs) and the ctDNA to 11Cl ratio was varied between 0 and 1. The samples were incubated for 24 h at 37 °C and then analyzed in the CD spectropolarimeter.

[4] = sodium counteranion salts, 24 h, read-out: IC50 in MDA-MB-231 cell line Mean ± SD 24 h
[5] = sodium counteranion salts, 72 h, read-out: IC50 in MDA-MB-231 cell line Mean ± SD 72h
[6] = sodium counteranion salts, 24 h, read-out: IC50 in L929 cell line Mean ± SD 24 h
[7] = sodium counteranion salts, 72 h, read-out: IC50 in L929 cell line Mean ± SD 72h
[8] = sodium counteranion salts, 24 h, read-out: IC50 in MCF-7 cell line Mean ± SD 24 h
[9] = sodium counteranion salts, 72 h, read-out: IC50 in MCF-7 cell line Mean ± SD 72h
[10] = 24 h exposure, MTT, read-out: IC50 (µM) (average ± standard deviation) 24 h MDA-MB-231
[11] = 72 h exposure, MTT, read-out: IC50 (μM) (average ± standard deviation) 72 h MDA-MB-231
[12] = 24 h exposure, MTT, read-out: IC50 (µM) (average ± standard deviation) 24 h L929
[13] = 72 h exposure, MTT, read-out: IC50 (μM) (average ± standard deviation) 72 h L929
[14] = 24 h exposure, MTT, read-out: IC50 (µM) (average ± standard deviation) 24 h MCF-7
[15] = 72 h exposure, MTT, read-out: IC50 (μM) (average ± standard deviation) 72 h MCF-7

SMILES | IC50 (MDA-MB-231; [4]) [µM] | IC50 (MDA-MB-231; [5]) [µM] | IC50 (L929; [6]) [µM] | IC50 (L929; [7]) [µM] | IC50 (MCF-7; [8]) [µM] | IC50 (MCF-7; [9]) [µM] | IC50 (MDA-MB-231; [10]) [µM] | IC50 (MDA-MB-231; [11]) [µM] | SI (selectivity index) (L929; 24 h) | IC50 (L929; [12]) [µM] | SI (selectivity index) (L929; 72 h) | IC50 (L929; [13]) [µM] | IC50 (MCF-7; [14]) [µM] | IC50 (MCF-7; [15]) [µM] | further results
c1ccc([B-](c2ccccc2)(c2ccccc2)c2ccccc2)cc1 [NaBPh4, reference compound] | 441 ± 61 | 149 ± 13 | 186 ± 11 | 55 ± 4 | 217 ± 44 | 102 ± 14 | – | – | – | – | – | – | – | – | –
Cc1cccc[c]1[Ru+]([Cl])([PH](c1ccccc1)(c1ccccc1)c1ccccc1)[PH](c1ccccc1)(c1ccccc1)c1ccccc1.F[P-](F)(F)(F)(F)F [Compound 11PF6] | – | – | – | – | – | – | 5 ± 0.1 | 0.16 ± 0.01 | 2.5 | 10 ± 1 | 1.1 | 0.17 ± 0.01 | 3 ± 0.3 | 0.15 ± 0.01 | Solubility (μM) [1]: 0.6 ± 0.2 µM; Solubility (μg/mL) [1]: 0.6 ± 0.2 µg/mL; Conductivity (molar conductivity) [2]: 150 S·cm2/mol; LogPow [3]: 1.91 ± 0.23
CC[N+](C)(CC)CCC[n+]1c(-c2ccccc2)c2cc(N)ccc2c2ccc(N)cc21.[I-].[I-] [PI, propidium iodide] | – | – | – | – | – | – | – | – | – | – | – | – | – | – | CD band 220 nm (hydrogen bonding), intensity change (ctDNA): Unchanged; CD band 220 nm (hydrogen bonding), wavelength shift (ctDNA): Blue shift; CD band 246 nm (helicity), intensity change (ctDNA): Hyperchromic; CD band 246 nm (helicity), wavelength shift (ctDNA): Unchanged; CD band 268−280 nm (base-pair stacking interactions), intensity change (ctDNA): Hyperchromic; CD band 268−280 nm (base-pair stacking interactions), wavelength shift (ctDNA): Unchanged
Cc1cccc[c]1[Ru+]([Cl])([PH](c1ccccc1)(c1ccccc1)c1ccccc1)[PH](c1ccccc1)(c1ccccc1)c1ccccc1.O=[N+]([O-])[O-] [Compound 11NO3] | – | – | – | – | – | – | 4.6 ± 0.3 | 0.109 ± 0.009 | 0.7 | 3.7 ± 0.4 | 11.1 | 1.04 ± 0.05 | 5.9 ± 0.5 | 0.078 ± 0.005 | Solubility (μM) [1]: 268 ± 42 µM; Solubility (μg/mL) [1]: 218 ± 34 µg/mL; Conductivity (molar conductivity) [2]: 141 S·cm2/mol; LogPow [3]: 1.57 ± 0.29
C[NH+](C)Cc1ccccc1.[Cl-].[Cl][Ru]([Cl])[PH]12CN3CN(CN(C3)C1)C2 [Compound 3] | – | – | – | – | – | – | 357 ± 7 | 60 ± 3 | 1.8 | 749 ± 45 | 1.5 | 84 ± 5 | 463 ± 19 | 51 ± 4 | –
O=[N+]([O-])[O-].[Na+] [NaNO3, reference compound] | > 2000 | 334 ± 23 | > 1000 | 331 ± 57 | > 2000 | 262 ± 38 | – | – | – | – | – | – | – | – | –
F[P-](F)(F)(F)(F)F.[Na+] [NaPF6, reference compound] | > 1000 | 329 ± 17 | 759 ± 77 | 297 ± 24 | > 2000 | 311 ± 27 | – | – | – | – | – | – | – | – | –
O=S(=O)([O-])C(F)(F)F.[Na+] [NaOTf, reference compound] | > 2000 | 354 ± 27 | > 1000 | 159 ± 20 | > 2000 | 279 ± 30 | – | – | – | – | – | – | – | – | –
F[B-](F)(F)F.[Na+] [NaBF4, reference compound] | > 2000 | 347 ± 19 | 923 ± 77 | 386 ± 49 | > 2000 | 343 ± 39 | – | – | – | – | – | – | – | – | –
[F][Sb-]([F])([F])([F])([F])[F].[Na+] [NaSbF6, reference compound] | 689 ± 61 | 236 ± 13 | 693 ± 53 | 180 ± 22 | > 1000 | 234 ± 24 | – | – | – | – | – | – | – | – | –
Cc1cccc[c]1[Ru+]([Cl])([PH](c1ccccc1)(c1ccccc1)c1ccccc1)[PH](c1ccccc1)(c1ccccc1)c1ccccc1.F[B-](F)(F)F [Compound 11BF4] | – | – | – | – | – | – | 4.3 ± 0.4 | 0.19 ± 0.01 | 0.8 | 3.8 ± 0.4 | 6.8 | 1.13 ± 0.05 | 5.4 ± 0.6 | 0.14 ± 0.01 | Solubility (μM) [1]: 5 ± 2 µM; Solubility (μg/mL) [1]: 4 ± 1 µg/mL; Conductivity (molar conductivity) [2]: 124 S·cm2/mol; LogPow [3]: 1.60 ± 0.20
Cc1ccc(C(C)C)cc1.[Br][Ru]([Br])[PH]12CN3CN(CN(C3)C1)C2 [Compound 6] | – | – | – | – | – | – | 388 ± 12 | 63 ± 5 | 1.8 | 670 ± 60 | 1.2 | 82 ± 3 | 376 ± 15 | 74 ± 7 | –
Cc1ccc(C(C)C)cc1.O=C1[O][Ru]([PH]23CN4CN(CN(C4)C2)C3)[O]C1=O [Compound 7] | – | – | – | – | – | – | 513 ± 16 | 83 ± 5 | – | 570 ± 18 | – | 104 ± 4 | 407 ± 17 | 62 ± 4 | –
Cc1ccc(CCC(=O)O)cc1.O=C1[O][Ru]([PH]23CN4CN(CN(C4)C2)C3)[O]C1=O [Compound 8] | – | – | – | – | – | – | 284 ± 7 | 50 ± 2 | – | 572 ± 33 | – | 50 ± 3 | 213 ± 8 | 41 ± 5 | –
Cc1c(C)c(C)[c-](C)c1C.[Cl][Ru+]([PH]12CN3CN(CN(C3)C1)C2)[PH]12CN3CN(CN(C3)C1)C2 [Compound 2] | – | – | – | – | – | – | 286 ± 7 | 63 ± 3 | 1.6 | 537 ± 29 | 1.1 | 64 ± 4 | 403 ± 9 | 51 ± 6 | –
[Cl-].[Na+] [NaCl, reference compound] | > 2000 | 398 ± 38 | 782 ± 55 | 274 ± 31 | > 2000 | 280 ± 33 | – | – | – | – | – | – | – | – | –
Cc1ccccc1.[Cl][Ru]([Cl])[PH](c1ccccc1)(c1ccccc1)c1ccccc1 [Compound 9] | – | – | – | – | – | – | 164 ± 2 | 44 ± 3 | 2.3 | 544 ± 12 | 1.5 | 70 ± 4 | 304 ± 19 | 52 ± 7 | Solubility (μM) [1]: 65 ± 8 µM; Solubility (μg/mL) [1]: 34 ± 4 µg/mL
